Measured values taken from the supplement of paper PMC10307832.

Compound: CC1(COc2ccc3c(c2)ncn3-c2ccc3cccc(N4CCC(N)CC4)c3n2)COC1 [Crenolanib]
Assay: relative viability (nuclei count vs DMSO), 5 days (fraction); higher = more cells survive
Conditions: 0.01 µM
How it was run: (§1)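 Viability here means nuclei in treated wells divided by nuclei in vehicle wells, reported as the median across plates. Only plates with control CV below 25% and at least one doubling passed. Lung cancer cell lines in 1536-well plates were exposed to five √10-spaced library-drug doses for 5 days and counted from 4× Hoechst images in MetaXpress.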

Going from NCI-H2347 to NCI-H1355, the relative viability falls from 1.08 to 1.07.

Compared with NCI-H650, CAL-12T is higher in relative viability: 0.999 for the first, 1.07 for the second.

Going from NCI-H1666 to H3255, the relative viability falls from 1.05 to 1.02.

Going from NCI-H23 to NCI-H1915, the relative viability falls from 1.03 to 0.969.

Compared with NCI-H1437, NCI-H322M is lower in relative viability: 0.983 for the first, 0.936 for the second.

Going from NCI-H1563 to NCI-H1792, the relative viability rises from 1.02 to 1.15.

First: NCI-H2085
Second: HCC-366
The relative viability of the first is lower: 1 for the first, 1.03 for the second.

First: NCI-H1793
Second: PC-3 [JPC-3]
The relative viability of the first is lower: 0.909 for the first, 1.08 for the second.

Same assay, conditions: 0.03162 µM

Going from NCI-H2347 to NCI-H1355, the relative viability rises from 0.934 to 0.994.

Going from NCI-H650 to CAL-12T, the relative viability rises from 0.798 to 0.948.

Going from NCI-H1666 to H3255, the relative viability falls from 0.974 to 0.935.

Compared with NCI-H23, NCI-H1915 is higher in relative viability: 0.929 for the first, 1 for the second.

Going from NCI-H1437 to NCI-H322M, the relative viability falls from 1 to 0.911.

First: NCI-H1563
Second: NCI-H1792
The relative viability of the first is higher: 0.877 for the first, 0.777 for the second.

Going from NCI-H2085 to HCC-366, the relative viability rises from 1.01 to 1.03.

Compared with NCI-H1793, PC-3 [JPC-3] is lower in relative viability: 1.02 for the first, 1.01 for the second.

Same assay, conditions: 0.1 µM

Compared with NCI-H2347, NCI-H1355 is higher in relative viability: 0.758 for the first, 0.955 for the second.

Going from NCI-H650 to CAL-12T, the relative viability rises from 0.963 to 0.984.

Compared with NCI-H1666, H3255 is lower in relative viability: 0.951 for the first, 0.929 for the second.

First: NCI-H23
Second: NCI-H1915
The relative viability of the first is lower: 0.911 for the first, 1.02 for the second.

First: NCI-H1437
Second: NCI-H322M
The relative viability of the first is higher: 0.977 for the first, 0.953 for the second.

Compared with NCI-H1563, NCI-H1792 is lower in relative viability: 1 for the first, 0.82 for the second.

First: NCI-H2085
Second: HCC-366
The relative viability of the first is lower: 0.948 for the first, 0.958 for the second.

First: NCI-H1793
Second: PC-3 [JPC-3]
The relative viability of the first is lower: 0.811 for the first, 0.93 for the second.

Same assay, conditions: 0.3162 µM

Compared with NCI-H2347, NCI-H1355 is lower in relative viability: 1.1 for the first, 1.03 for the second.

First: NCI-H650
Second: CAL-12T
The relative viability of the first is lower: 0.868 for the first, 1.05 for the second.

Going from NCI-H1666 to H3255, the relative viability falls from 1.04 to 0.984.

First: NCI-H23
Second: NCI-H1915
The relative viability of the first is lower: 1 for the first, 1.01 for the second.

Compared with NCI-H1437, NCI-H322M is lower in relative viability: 1.04 for the first, 0.811 for the second.

Going from NCI-H1563 to NCI-H1792, the relative viability falls from 0.952 to 0.858.

Compared with NCI-H2085, HCC-366 is higher in relative viability: 0.997 for the first, 1.05 for the second.

Compared with NCI-H1793, PC-3 [JPC-3] is lower in relative viability: 1.07 for the first, 1.06 for the second.

Same assay, conditions: 1 µM

First: NCI-H2347
Second: NCI-H1355
The relative viability of the first is higher: 1.03 for the first, 0.856 for the second.

Compared with NCI-H650, CAL-12T is higher in relative viability: 0.887 for the first, 0.992 for the second.

Compared with NCI-H1666, H3255 is lower in relative viability: 0.965 for the first, 0.918 for the second.

Compared with NCI-H23, NCI-H1915 is higher in relative viability: 0.766 for the first, 0.779 for the second.

First: NCI-H1437
Second: NCI-H322M
The relative viability of the first is higher: 1.02 for the first, 0.912 for the second.

Compared with NCI-H1563, NCI-H1792 is lower in relative viability: 0.928 for the first, 0.784 for the second.

Compared with NCI-H2085, HCC-366 is higher in relative viability: 0.978 for the first, 0.998 for the second.

Compared with NCI-H1793, PC-3 [JPC-3] is higher in relative viability: 0.88 for the first, 0.977 for the second.

Compound: O=C1NC(=O)[C@@H](c2cn3c4c(cccc24)CCC3)[C@@H]1c1c[nH]c2ccccc12 [Tivantinib]
Assay: as above
Conditions: 0.01 µM
How it was run: as §1

Going from NCI-H2347 to NCI-H1355, the relative viability falls from 1.16 to 1.01.

Going from NCI-H650 to CAL-12T, the relative viability rises from 0.98 to 1.1.

Going from NCI-H1666 to H3255, the relative viability falls from 1.01 to 0.971.

Going from NCI-H23 to NCI-H1915, the relative viability rises from 0.975 to 0.986.

Going from NCI-H1437 to NCI-H322M, the relative viability falls from 0.993 to 0.958.

Compared with NCI-H1563, NCI-H1792 is lower in relative viability: 1.03 for the first, 0.849 for the second.

Compared with NCI-H2085, HCC-366 is lower in relative viability: 1.03 for the first, 1.02 for the second.

First: NCI-H1793
Second: PC-3 [JPC-3]
The relative viability of the first is lower: 0.923 for the first, 1.04 for the second.

Same assay, conditions: 0.03162 µM

Compared with NCI-H2347, NCI-H1355 is lower in relative viability: 0.988 for the first, 0.921 for the second.

First: NCI-H650
Second: CAL-12T
The relative viability of the first is lower: 0.671 for the first, 0.853 for the second.

Going from NCI-H1666 to H3255, the relative viability falls from 0.952 to 0.934.

First: NCI-H23
Second: NCI-H1915
The relative viability of the first is lower: 0.762 for the first, 0.912 for the second.

First: NCI-H1437
Second: NCI-H322M
The relative viability of the first is higher: 0.984 for the first, 0.865 for the second.

Compared with NCI-H1563, NCI-H1792 is lower in relative viability: 0.988 for the first, 0.842 for the second.

Going from NCI-H2085 to HCC-366, the relative viability rises from 0.981 to 1.03.

Going from NCI-H1793 to PC-3 [JPC-3], the relative viability rises from 0.98 to 1.13.

Same assay, conditions: 0.1 µM

Going from NCI-H2347 to NCI-H1355, the relative viability falls from 1.02 to 0.973.

First: NCI-H650
Second: CAL-12T
The relative viability of the first is lower: 0.896 for the first, 0.969 for the second.

Compared with NCI-H1666, H3255 is higher in relative viability: 0.977 for the first, 1 for the second.

Compared with NCI-H23, NCI-H1915 is lower in relative viability: 0.982 for the first, 0.977 for the second.

Going from NCI-H1437 to NCI-H322M, the relative viability rises from 0.908 to 0.928.

Going from NCI-H1563 to NCI-H1792, the relative viability rises from 0.841 to 0.935.

Going from NCI-H2085 to HCC-366, the relative viability rises from 0.974 to 0.994.

First: NCI-H1793
Second: PC-3 [JPC-3]
The relative viability of the first is lower: 0.837 for the first, 1.08 for the second.

Same assay, conditions: 0.3162 µM

Going from NCI-H2347 to NCI-H1355, the relative viability falls from 1.07 to 1.01.

Going from NCI-H650 to CAL-12T, the relative viability falls from 0.943 to 0.627.

Compared with NCI-H1666, NCI-H23 is higher in relative viability: 0.83 for the first, 1 for the second.

Compared with NCI-H1915, NCI-H1437 is lower in relative viability: 1.06 for the first, 0.989 for the second.

First: NCI-H1563
Second: NCI-H1792
The relative viability of the first is lower: 0.822 for the first, 1.08 for the second.

Going from NCI-H2085 to HCC-366, the relative viability rises from 0.905 to 0.955.

Cell Line NCI-H1793 has a relative viability of 0.61.
